From patent publication US20250235508A1, “MODIFIED THERAPEUTIC AGENTS AND COMPOSITIONS THEREOF” (THE SCRIPPS RESEARCH INSTITUTE, priority 2015, published 2025)
Starred links: 1 amine or outer side, 2 acyl side, 3 side chain; linkers in the order of their positions; H or OH if unused. Positions of bridges follow the written chain, without caps; N, C: chain ends. Non-standard residues stand in square brackets, D forms with d. Residues, ends and D or L forms follow the SMILES beside them. Glutaryl = O=C(CCCC(=O)[*:2])[*:1]

Assays:
[1] = molecular target: T1, human glucagon-like peptide 1 receptor (GLP-1R) (Homo sapiens, UniProt P43220); assay: GLP-1R receptor-mediated CRE Luc reporter assay (receptor-mediated cAMP synthesis); format: cell-based; settings: HEK293-GLP-1R-CRE cells, luciferase reporter
T1 construct: expressed in transfected cells; host or cells: HEK293 (CRE-HEK293)
T1 sequence (P43220 24-463): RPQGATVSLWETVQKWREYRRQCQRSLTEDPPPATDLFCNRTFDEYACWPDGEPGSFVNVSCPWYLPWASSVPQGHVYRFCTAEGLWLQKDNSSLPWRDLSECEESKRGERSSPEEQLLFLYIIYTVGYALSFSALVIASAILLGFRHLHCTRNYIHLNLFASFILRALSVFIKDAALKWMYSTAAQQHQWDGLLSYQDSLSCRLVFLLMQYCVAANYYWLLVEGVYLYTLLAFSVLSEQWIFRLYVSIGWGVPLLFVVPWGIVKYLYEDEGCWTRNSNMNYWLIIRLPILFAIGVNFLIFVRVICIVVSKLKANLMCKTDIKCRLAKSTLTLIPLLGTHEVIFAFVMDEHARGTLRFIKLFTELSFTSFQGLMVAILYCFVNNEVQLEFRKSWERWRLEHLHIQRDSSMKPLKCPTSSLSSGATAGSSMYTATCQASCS
Method: HEK293 cells were infected with lent virus encoding firefly luciferase gene under the control of CRE promoter, as described in the manual (Qiagen, Netherlands) and then were selected using 1 μg/mL puromycin (Life technologies, Carlsbad) for 1 week. The survived cells were named as CRE-HEK293, expanded and then transfected with a G418 selective mammalian expression plasmid encoding human GCGR, GLP-1R, GIPR or GLP-2R. […] Single colony stable cell lines overexpressing both CRE-luciferase and GCGR, GLP-1R, GIPR, or GLP-2R were then established for in vitro activity assays. These four stable cell lines were named as HEK293-GCGR-CRE, HEK293-GLP-1R-CRE, HEK293-GIPR-CRE, and HEK293-GLP-2R-CRE. […] Cells were treated with different peptides in a dose dependent manner.

[2] = molecular target: T2, human glucagon receptor (GCGR) (Homo sapiens, UniProt P47871); assay: GCGR receptor-mediated CRE Luc reporter assay (receptor-mediated cAMP synthesis); format: cell-based; settings: HEK293-GCGR-CRE cells, luciferase reporter
T2 construct: expressed in transfected cells; host or cells: HEK293 (CRE-HEK293)
T2 sequence (P47871 26-477): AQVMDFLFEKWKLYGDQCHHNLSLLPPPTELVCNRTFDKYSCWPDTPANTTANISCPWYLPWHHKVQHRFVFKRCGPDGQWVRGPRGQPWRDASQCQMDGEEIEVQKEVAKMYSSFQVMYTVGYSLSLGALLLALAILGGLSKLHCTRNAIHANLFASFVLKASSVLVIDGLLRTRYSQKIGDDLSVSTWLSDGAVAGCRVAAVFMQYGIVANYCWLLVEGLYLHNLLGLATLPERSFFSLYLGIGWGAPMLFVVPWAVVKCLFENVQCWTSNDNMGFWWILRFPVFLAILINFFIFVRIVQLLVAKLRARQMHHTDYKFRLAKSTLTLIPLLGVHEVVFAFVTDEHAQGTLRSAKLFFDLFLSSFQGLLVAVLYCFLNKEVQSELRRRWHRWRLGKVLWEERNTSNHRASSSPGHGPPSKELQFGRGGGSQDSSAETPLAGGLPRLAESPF
Method: (§1) CREB responsive luciferase stable HEK 293 cell line overexpressing human glucagon receptor (GCGR), glucagon-like peptide 1 receptor (GLP-1R), glucose-dependent insulinotropic polypeptide receptor (GIPR), glucagon-like peptide 2 receptor (GLP-2R) was generated as follows. HEK293 cells were infected with lent virus encoding firefly luciferase gene under the control of CRE promoter, as described in the manual (Qiagen, Netherlands) and then were selected using 1 μg/mL puromycin (Life technologies, Carlsbad) for 1 week. The survived cells were named as CRE-HEK293, expanded and then transfected with a G418 selective mammalian expression plasmid encoding human GCGR, GLP-1R, GIPR or GLP-2R. In brief, GCGR, GLP-1R, GIPR, or GLP-2R plasmid was transfected into CRE-HEK293 cells using Lipofectamine 2000 and selected with 400 μg/mL geneticin (Life technologies, Carlsbad, CA). Single colony stable cell lines overexpressing both CRE-luciferase and GCGR, GLP-1R, GIPR, or GLP-2R were then established for in vitro activity assays. […] On the next day, 10 μl of Bright-Glo reagent (Promega, Madison, WI) were added into each well and firefly luminescence was determined using an Envision multilabel plate reader (PerkinElmer, Waltham, MA). EC50 of each peptide was calculated using GraphPad Prism 6 software (GraphPad, San Diego, CA). […]

in vivo = settings: female, CD-1, mouse, 0.3 mg/kg
Method: (§2) Female CD-1 mice obtained from Charles River Limited were used after overnight food deprivation for in vivo PK study. Peptides were dissolved in pH adjusted Phosphate buffered saline (PBS). 100 μL of each peptide (0.3 mg/kg) was administrated into each mouse through either i.v. or s.c route. Food was provided to mice immediately after bleeding at 30 minute. Blood were extracted into heparinized tubes and centrifuged at 3,000×g for 15 min. The resulting supernatant plasma were then stored at −80° C. for activity assays. The concentrations of peptides in plasma at each time point were determined by activity assay described above and in vivo half-life of each peptide was calculated by using Winnonlin Phoenix software (Pharsight Corp, St. Louis, MO).

[3] = molecular target: T3, human glucagon-like peptide 2 receptor (GLP-2R) (Homo sapiens, UniProt O95838); assay: GLP-2R receptor-mediated CRE Luc reporter assay (receptor-mediated cAMP synthesis); format: cell-based; settings: HEK293-GLP-2R-CRE cells, luciferase reporter
T3 construct: expressed in transfected cells; host or cells: HEK293 (CRE-HEK293)
T3 sequence (O95838 1-553): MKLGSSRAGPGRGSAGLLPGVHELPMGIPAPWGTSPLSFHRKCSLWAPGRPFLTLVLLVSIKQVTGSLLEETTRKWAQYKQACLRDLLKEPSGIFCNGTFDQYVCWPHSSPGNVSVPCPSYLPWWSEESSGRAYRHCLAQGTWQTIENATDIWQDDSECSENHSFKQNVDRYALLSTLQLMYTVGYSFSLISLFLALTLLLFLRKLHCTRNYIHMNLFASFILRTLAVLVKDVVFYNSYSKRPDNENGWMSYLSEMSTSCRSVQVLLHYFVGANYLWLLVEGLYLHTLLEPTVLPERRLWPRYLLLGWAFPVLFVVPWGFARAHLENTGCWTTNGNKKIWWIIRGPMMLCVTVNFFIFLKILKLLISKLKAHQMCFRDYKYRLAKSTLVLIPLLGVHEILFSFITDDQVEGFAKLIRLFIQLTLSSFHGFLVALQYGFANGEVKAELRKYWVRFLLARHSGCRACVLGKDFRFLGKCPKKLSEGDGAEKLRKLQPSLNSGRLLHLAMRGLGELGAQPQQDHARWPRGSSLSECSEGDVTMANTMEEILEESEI
Method: as §1

[4] = In vivo pharmacokinetic (PK) study in CD-1 mice; settings: female, CD-1, mouse, plasma, 0.3 mg/kg
Method: as §2

| half-life (in vivo; iv) | half-life (in vivo; sc) | EC50 [3] | half-life ([4]; iv) | half-life ([4]; sc) | SMILES | EC50 [1] | EC50 [2] |
| --- | --- | --- | --- | --- | --- | --- | --- |
| 5.7 h | 8 h |  |  |  | CC[C@H](C)[C@@H]1NC(=O)[C@H](Cc2ccccc2)NC(=O)[C@H](CCC(=O)O)NC(=O)[C@H](CCCCN)NC(=O)[C@H](C)NC(=O)[C@H](C)NC(=O)[C@@H](NC(=O)[C@H](CCC(=O)O)NC(=O)[C@H](CC(=O)O)NC(=O)[C@H](CC(C)C)NC(=O)[C@H](Cc2ccc(O)cc2)NC(=O)[C@H](CCCCN)NC(=O)[C@H](CO)NC(=O)[C@H](Cc2ccc(O)cc2)NC(=O)[C@H](CC(=O)O)NC(=O)[C@H](CO)NC(=O)[C@@H](NC(=O)[C@H](Cc2ccccc2)NC(=O)[C@@H](NC(=O)CNC(=O)[C@H](CCC(N)=O)NC(=O)[C@@H](CO)NC(=O)[C@@H](N)Cc2c[nH]cn2)[C@@H](C)O)[C@@H](C)O)CCCCNC(=O)CN(C(=O)CCNC(=O)CCOCCOCCOCCNC(=O)CCCCCCCCCCCCCCCCC(=O)O)CC(=O)NCCCC[C@@H](C(=O)N[C@@H](Cc2c[nH]c3ccccc23)C(=O)N[C@@H](CC(C)C)C(=O)N[C@@H](CC(C)C)C(=O)N[C@@H](CCCNC(=N)N)C(=O)N[C@@H](C)C(N)=O)NC1=O [mTA4] | 0.03 nM | 0.15 nM |
|  |  |  |  |  | CC[C@H](C)[C@@H]1NC(=O)[C@H](Cc2ccccc2)NC(=O)[C@H](CCC(=O)O)NC(=O)[C@H](CCCCN)NC(=O)[C@H](C)NC(=O)[C@H](C)NC(=O)[C@@H](NC(=O)[C@H](CCC(=O)O)NC(=O)[C@H](CC(=O)O)NC(=O)[C@H](CC(C)C)NC(=O)[C@H](Cc2ccc(O)cc2)NC(=O)[C@H](CCCCN)NC(=O)[C@H](CO)NC(=O)[C@H](Cc2ccc(O)cc2)NC(=O)[C@H](CC(=O)O)NC(=O)[C@H](CO)NC(=O)[C@@H](NC(=O)[C@H](Cc2ccccc2)NC(=O)[C@@H](NC(=O)CNC(=O)[C@H](CCC(N)=O)NC(=O)[C@@H](CO)NC(=O)[C@@H](N)Cc2c[nH]cn2)[C@@H](C)O)[C@@H](C)O)CCCCNC(=O)CCCC(=O)NCCCC[C@@H](C(=O)N[C@@H](Cc2c[nH]c3ccccc23)C(=O)N[C@@H](CC(C)C)C(=O)N[C@@H](CC(C)C)C(=O)N[C@@H](CC(N)=O)C(=O)NCC(=O)NCC(=O)N2CCC[C@H]2C(=O)N[C@@H](CO)C(=O)N[C@@H](CO)C(=O)NCC(=O)N[C@@H](C)C(=O)N2CCC[C@H]2C(=O)N2CCC[C@H]2C(=O)N2CCC[C@H]2C(=O)N[C@@H](CO)C(N)=O)NC1=O [mTA5] (H-H[dS]QGTFTSDYSKYLDEKAAKEFIKWLLNGGPSSGAPPPS-NH2; linker 17-24 via Glutaryl) | 0.02 nM | 0.07 nM |
|  |  | 0.068 nM | 3 h | 4 h | CCCCCCCCCCCCCC(=O)NCCOCCOCCOCCC(=O)NCCC(=O)N1CC(=O)NCCCC[C@@H](C(=O)N[C@@H](C)C(=O)N[C@@H](CCCNC(=N)N)C(=O)N[C@@H](CC(=O)O)C(=O)N[C@@H](Cc2ccccc2)C(=O)N[C@H](C(=O)N[C@@H](CC(N)=O)C(=O)N[C@@H](Cc2c[nH]c3ccccc23)C(=O)N[C@@H](CC(C)C)C(=O)N[C@H](C(=O)N[C@@H](CCC(N)=O)C(=O)N[C@H](C(=O)N[C@@H](CCCCN)C(=O)N[C@H](C(=O)N[C@H](C(=O)N[C@@H](CC(=O)O)C(N)=O)[C@@H](C)O)[C@@H](C)CC)[C@@H](C)O)[C@@H](C)CC)[C@@H](C)CC)NC(=O)[C@H](CC(C)C)NC(=O)[C@H](CC(N)=O)NC(=O)[C@H](CC(=O)O)NC(=O)[C@H](CC(C)C)NC(=O)[C@H]([C@@H](C)CC)NC(=O)[C@H]([C@@H](C)O)NC(=O)[C@@H](NC(=O)[C@H](CCSC)NC(=O)[C@H](CCC(=O)O)NC(=O)[C@H](CC(=O)O)NC(=O)[C@H](CO)NC(=O)[C@H](Cc2ccccc2)NC(=O)[C@H](CO)NC(=O)CNC(=O)[C@H](CC(=O)O)NC(=O)CNC(=O)[C@@H](N)Cc2c[nH]cn2)CCCCNC(=O)C1 [mTA7] |  |  |
